Measurements from patent publication EP4667628A1, “SYNTHETIC LETHALITY TO TREAT AUTOSOMAL DOMINANT POLYCYSTIC KIDNEY DISEASE (ADPKD)” (Albert-Ludwigs-Universität Freiburg Körperschaft des …, priority 2024, dated 2025).
Like-named read-outs stand apart in the source and are kept apart here.

Assays:
[1] = test system: monoclonal PKD1 KO mIMCD-3 cell line (clone #1); assay: Luminescence-based ATP-dependent cell viability assay (CellTiter-Glo 2.0), dose-response, PKD1 knockout clone #1; set-up: species or system mouse; conditions: for IC50: Mus musculus; for effect sizes: further MEK-inhibitors tested, PKD1-deficient cells compared to wildtype cells
Experimental: (§1) Subculturing of cells was performed twice a week in a 1:10 ratio. Cells were maintained in a humidified incubator at 37°C and 5% CO2. […] The term "wild-type" is used for mIMCD-3 cells that were not edited by CRISPR-Cas9. The original cell line obtained from ATCC was generated from inner medullary collecting ducts of a SV-40 transgenic mouse.^13
(§2) Prior to genome editing, a monoclonal starting cell line was generated by a single cell sorting step.
(§3) After 72 hours cell density was checked with an inverted microscope (Zeiss Axiovert 40CFL). Cells were washed with 10 ml phosphate buffered saline (PBS). […] 10 ml DMEM:F12 with 10% FBS and 1% penicillin/streptomycin were added, cell detachment was facilitated by pipetting up and down multiple times. […] Cell density was diluted to 400,000 cells/ml for each genotype. […] Basins of 1536 well plates were filled with 25 µl (vertical basins) or 40 µl (horizontal basins) H2O in order to prevent evaporation induced edge effects. Confluency was checked after 24 hours with an Evos M5000 imaging system (Invitrogen).
(§4) For the secondary screen and validation experiments, source plates were generated with compounds in 1:2 dilutions allowing for the generation of dose-response-curves. 30 nl of compounds per well were transferred in secondary screen and validation experiments. […] The volume of transferred DMSO was adjusted according to the transferred compound volume. […] After compound transfer, plates were centrifuged (Multifuge 3 s-r, Heraeus) for 10 seconds (1,000 rpm). […] Plates were stored in incubators at 37°C and 5% CO2 for 72 hours. A maximum of two plates was stacked in the incubator. Source plates were sealed with an Agilent Technologies Plateloc heat sealer. Prior to compound transfer source plates were centrifuged (4,200 rpm, 1 min). Sealing was removed with a Brooks XPeel device.
(§5) After 72 hours of compound incubation, plates were allowed to adapt to room temperature for 20 minutes. […] The luminescence signal was allowed to stabilize for 20 min. Luminescence was scanned with a BMG Labtech Pherastar FSX luminescence reader with a measurement interval time of 0.16 s per well. A 1536-well plate adapted aperture was used to minimize cross-talk. Data analysis was performed with GraphPad Prism (version 9). Dose- and genotype-dependent differences in viability were checked for statistical significance by performing a two-way ANOVA (α = 0.05). Difference in protein abundance analyzed by western blot were checked for statistical significance by performing a student's t-test (α = 0.05).

[2] = test system: second independent PKD1 KO clone (#2); assay: Luminescence-based ATP-dependent cell viability assay (CellTiter-Glo 2.0), dose-response, PKD1 knockout clone #2; conditions: Mus musculus
Experimental: as §1, §2, §3, §4, §5

[3] = test system: isogenic wildtype mIMCD-3 cells; assay: Luminescence-based ATP-dependent cell viability assay (CellTiter-Glo 2.0), dose-response, isogenic wildtype counter screen; conditions: Mus musculus
Experimental: as §1, §2, §3, §4, §5

[4] = mIMCD3, mIMCD-3 PKD1 knockout clone 1, 72 hours compound incubation, IC50 = concentration that kills 50% of the cells, read-out: IC50 PKD1-/- (clone 1)
[5] = mIMCD3, mIMCD-3 PKD1 knockout clone 2, 72 hours compound incubation, IC50 = concentration that kills 50% of the cells, read-out: IC50 PKD1-/- (clone 2)
[6] = mIMCD3, isogenic wildtype mIMCD-3 control cells, 72 hours compound incubation, read-out: IC50 wildtype
[7] = mIMCD3, 72 h, read-out: IC50 wildtype (µM)
[8] = mIMCD3, 72 h, read-out: IC50 PKD1-/- (clone 1) (µM)
[9] = mIMCD3, 72 h, read-out: IC50 PKD1-/- (clone 2) (µM)

C=CCN1C(=O)CS/C1=N\NC(=S)NC [Number 1, 1-methyl-3-[(Z)-(4-oxo-3-prop-2-enyl-1,3-thiazolidin-2-ylidene)amino]thiourea]
IC50 [1, 4]: 11.5 µM
IC50 [2, 5]: 10 µM
IC50 [3, 6]: > 30 µM

Cc1c(Cl)cccc1Nc1ncnc2cc(Cl)ccc12 [Number 3, 7-Chloro-N-(3-chloro-2-methylphenyl)-4-quinazolinamine]
IC50 [1, 4]: > 30 µM
IC50 [2, 5]: 14 µM
IC50 [3, 6]: > 30 µM

N#CC(C#N)=NNc1cccc(Cl)c1 [Number 4]
IC50 [1, 4]: 3.54 µM
IC50 [2, 5]: 2.85 µM
IC50 [3, 6]: 4.31 µM

Cn1c(/C=C/c2ccc([N+](=O)[O-])o2)nc2ccccc2c1=O [Number 5, 3-Methyl-2-[(E)-2-(5-nitro-2-furyl)vinyl]-4(3H)-quinazolinone]
IC50 [1, 4]: 2.39 µM
IC50 [2, 5]: 2.64 µM
IC50 [3, 6]: 4.01 µM

O=c1c2ccccc2nc(/C=C/c2ccc([N+](=O)[O-])o2)n1-c1ccc(O)cc1 [Number 6, 3-(4-Hydroxyphenyl)-2-[(E)-2-(5-nitro-2-furyl)vinyl]-4(3H)-quinazolinone]
IC50 [1, 4]: 3.17 µM
IC50 [2, 5]: 2.98 µM
IC50 [3, 6]: 4.49 µM

COc1cc2ncnc(Nc3cccc(Cl)c3C)c2cc1OC [Number 7, N-(3-Chloro-2-methylphenyl)-6,7-dimethoxy-4-quinazolinamine]
IC50 [1, 4]: 17 µM
IC50 [2, 5]: 12.1 µM
IC50 [3, 6]: > 30 µM

O=C(Nc1ccccc1C(=O)NCc1ccccn1)c1ccc([N+](=O)[O-])o1 [Number 8, 5-Nitro-N-{2-[(2-pyridinylmethyl)carbamoyl]phenyl}-2-furamide]
IC50 [1, 4]: 19.4 µM
IC50 [2, 5]: 19.4 µM
IC50 [3, 6]: 24.5 µM

COc1cc(NC(=O)c2ccc([N+](=O)[O-])o2)cc(C(F)(F)F)c1 [Number 9, N-[3-Methoxy-5-(trifluoromethyl)phenyl]-5-nitro-2-furamide]
IC50 [1, 4]: 15 µM
IC50 [2, 5]: 15.5 µM
IC50 [3, 7]: 18.4 µM

c1ccc(CNc2cc(-c3ccccc3)nc(-c3ccccn3)n2)cc1 [Number 10, N-benzyl-6-phenyl-2-pyridin-2-ylpyrimidin-4-amine]
IC50 [1, 4]: 3.24 µM
IC50 [2, 5]: 6.03 µM
IC50 [3, 6]: 7.73 µM

Fc1ccccc1-c1cc(NCCc2c[nH]c3ccccc23)nc(-c2ccccn2)n1 [Number 11, 6-(2-Fluorophenyl)-N-[2-(1H-indol-3-yl)ethyl]-2-(2-pyridinyl)-4-pyrimidinamine]
IC50 [1, 4]: 3.05 µM
IC50 [2, 5]: 6.43 µM
IC50 [3, 6]: 9.68 µM

CN(C)S(=O)(=O)c1cc(NC(=O)c2ccc([N+](=O)[O-])o2)ccc1Cl [Number 12, N-[4-Chloro-3-(dimethylsulfamoyl)phenyl]-5-nitro-2-furamide]
IC50 [1, 4]: 7.09 µM
IC50 [2, 5]: 8.51 µM
IC50 [3, 6]: 11.2 µM

CC(C)c1cc(N2CCCCC2)nc(-c2ccccn2)n1 [Number 13, 4-Piperidin-1-yl-6-propan-2-yl-2-pyridin-2-ylpyrimidine]
IC50 [1, 4]: 6.75 µM
IC50 [2, 5]: 18.7 µM
IC50 [3, 6]: 28.7 µM

COc1cc(F)c(F)c(Nc2ccc(I)cc2F)c1NS(=O)(=O)C1(C[C@H](O)CO)CC1 [Number 14, Refametinib]
IC50 [1, 4]: > 30 µM
IC50 [2, 5]: > 30 µM
IC50 [3, 7]: > 30 µM

O=C1C2=C(C(=O)c3ccccc31)[C@H]1Oc3ccccc3[C@H]1CO2 [Number 15, Pterocarpanquinone ((2S,10S)-3,12-dioxapentacyclo[11.8.0.02,10.04,9.015,20]henicosa-1(13),4,6,8,15,17,19-heptaene-14,21-dione)]
IC50 [1, 8]: 3.54 µM
IC50 [2, 9]: 2.8 µM
IC50 [3, 7]: 4.45 µM

CCOC(=O)CCNc1cc(N2CCc3ccccc3CC2)nc(-c2ccccn2)n1 [Number 17]
IC50 [1, 4]: 3.41 µM
IC50 [2, 5]: 6.08 µM
IC50 [3, 6]: 7.69 µM

CC(=O)N(C)c1ccc(Nc2nc(NC3CCC3)c3[nH]cnc3n2)cc1 [Number 18, N-(4-{[6-(Cyclobutylamino)-7H-purin-2-yl]amino}phenyl)-N-methylacetamide]
IC50 [1, 4]: 3.07 µM
IC50 [2, 5]: 2.53 µM
IC50 [3, 6]: 5.93 µM

COc1ccc(Cc2c(N)nc(-c3ccccn3)nc2N)cc1 [Number 19, 5-(4-Methoxybenzyl)-2-(2-pyridinyl)-4,6-pyrimidinediamine]
IC50 [1, 4]: 20 µM
IC50 [2, 5]: 24.9 µM
IC50 [3, 6]: 36.5 µM

Cc1nc(Nc2ncc(C(=O)Nc3c(C)cccc3Cl)s2)cc(N2CCN(CCO)CC2)n1 [Number 20]
IC50 [1, 4]: 2.32 µM
IC50 [2, 5]: 1.42 µM
IC50 [3, 6]: 3.74 µM

S=C(SSC(=S)N1CCOCC1)N1CCOCC1 [Number 21, Dimorpholinethiuram disulfide]
IC50 [1, 4]: 5.3 µM
IC50 [2, 5]: 3.94 µM
IC50 [3, 6]: 19.8 µM

N#CC(C#N)=NNc1ccc(OC(F)(F)F)cc1 [Number 22]
IC50 [1, 4]: 2.89 µM
IC50 [2, 5]: 2.42 µM
IC50 [3, 6]: 4.12 µM

O=C(NOCC1CC1)c1ccc(F)c(F)c1Nc1ccc(I)cc1Cl [Number 23]
IC50 [1, 4]: 6.21 µM
IC50 [2, 5]: 7.96 µM
IC50 [3, 6]: 10.3 µM

O=C(NOC[C@H](O)CO)c1ccc(F)c(F)c1Nc1ccc(I)cc1F [Number 24, Mirdametinib, reference compound]
effect sizes [1]: strong effect sizes

O=C(NOC[C@H](O)CO)c1ccc(F)c(F)c1Nc1ccc(I)cc1F [Number 24, Mirdametinib]
IC50 [1, 8]: 80 µM
IC50 [2, 9]: 21.8 µM

Cn1c(=O)c(F)c(Nc2ccc(I)cc2F)c2c(=O)n(C[C@@H](O)CO)cnc21 [Number 25, Tak-733, reference compound]
effect sizes [1]: strong effect sizes

Cn1c(=O)c(F)c(Nc2ccc(I)cc2F)c2c(=O)n(C[C@@H](O)CO)cnc21 [Number 25]
IC50 [1, 4]: 16.9 µM
IC50 [2, 5]: 9.51 µM
IC50 [3, 6]: 41.9 µM
